The results in this text go back to patent publication US20100076003A1, “5-OXAZOLIDIN-2-ONE SUBSTITUTED 1,3,8-TRIAZASPIRO[4.5]DECAN-4-ONE DERIVATIVES USEFUL AS ORL-1 RECEPTOR MODULATORS” (priority 2008, published 2010).

Assay [1] addresses Delta (δ) opioid receptor (Homo sapiens, UniProt P41143). The assay is described as follows: Filtration binding assay, delta opioid receptor, DPDPE-3H ligand.
The next assay has as its target Mu (μ) opioid receptor (Homo sapiens, UniProt P35372). The assay is described as follows: Filtration binding assay, mu opioid receptor, DAMGO-3H ligand.
For assay [2], the target named is Kappa (κ) opioid receptor (Homo sapiens, UniProt P41145). The assay is described as follows: Filtration binding assay, kappa opioid receptor, U-69,593-3H ligand.
Kappa (κ) opioid receptor, sequence (P41145 whole entry): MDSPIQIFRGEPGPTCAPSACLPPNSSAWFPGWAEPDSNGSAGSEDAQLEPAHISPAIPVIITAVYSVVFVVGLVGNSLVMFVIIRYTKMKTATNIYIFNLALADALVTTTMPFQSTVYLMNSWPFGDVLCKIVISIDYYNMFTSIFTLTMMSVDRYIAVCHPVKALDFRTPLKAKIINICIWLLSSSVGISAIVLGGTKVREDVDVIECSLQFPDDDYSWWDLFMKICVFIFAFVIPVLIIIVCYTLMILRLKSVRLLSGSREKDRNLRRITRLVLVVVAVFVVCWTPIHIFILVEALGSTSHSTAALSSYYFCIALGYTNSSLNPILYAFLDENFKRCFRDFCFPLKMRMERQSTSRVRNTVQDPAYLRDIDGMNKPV

Delta (δ) opioid receptor, sequence (P41143 whole entry): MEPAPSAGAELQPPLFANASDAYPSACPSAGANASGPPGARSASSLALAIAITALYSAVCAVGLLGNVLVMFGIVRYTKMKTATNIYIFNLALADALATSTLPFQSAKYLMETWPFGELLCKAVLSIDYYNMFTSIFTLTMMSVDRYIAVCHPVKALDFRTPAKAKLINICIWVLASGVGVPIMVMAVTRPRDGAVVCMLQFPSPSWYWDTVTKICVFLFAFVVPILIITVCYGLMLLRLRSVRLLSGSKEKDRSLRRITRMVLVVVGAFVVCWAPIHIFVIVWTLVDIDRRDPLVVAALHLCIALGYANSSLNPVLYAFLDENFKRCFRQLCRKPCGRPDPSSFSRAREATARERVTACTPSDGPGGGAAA
Mu (μ) opioid receptor, sequence (P35372 whole entry): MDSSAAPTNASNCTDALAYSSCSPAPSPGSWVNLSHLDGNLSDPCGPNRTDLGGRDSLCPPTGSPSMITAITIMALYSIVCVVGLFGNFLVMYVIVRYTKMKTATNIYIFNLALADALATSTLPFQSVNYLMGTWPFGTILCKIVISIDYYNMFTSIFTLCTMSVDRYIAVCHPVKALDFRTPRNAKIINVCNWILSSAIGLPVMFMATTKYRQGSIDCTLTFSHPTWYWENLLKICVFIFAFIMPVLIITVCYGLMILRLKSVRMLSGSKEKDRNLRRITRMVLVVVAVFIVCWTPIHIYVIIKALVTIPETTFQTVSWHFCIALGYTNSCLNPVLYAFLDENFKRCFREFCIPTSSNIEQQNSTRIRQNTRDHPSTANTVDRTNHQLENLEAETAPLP

As to `COCCN1C[C@@H](CN2CN(c3ccc(F)cc3)C3(CCN(Cc4cccc5cccc(C)c45)CC3)C2=O)OC1=O` [Compound 5, 1-(4-Fluoro-phenyl)-3-(R)-[3-(2-methoxy-ethyl)-2-oxo-oxazolidin-5-ylmethyl]-8-(8-methyl-naphthalen-1-ylmethyl)-1,3,8-triaza-spiro[4.5]decan-4-one], the figures for the Ki (in assay [1]; on Mu (μ) opioid receptor; in assay [2]) were greater than 5000 nM, 180 nM and 580 nM, respectively.
As to `Cc1cccc2cccc(CN3CCC4(CC3)C(=O)N(C[C@H]3CNC(=O)O3)CN4c3ccc(F)cc3)c12` [Compound 2, 1-(4-Fluoro-phenyl)-8-(8-methyl-naphthalen-1-ylmethyl)-3-(R)-(2-oxo-oxazolidin-5-ylmethyl)-1,3,8-triaza-spiro[4.5]decan-4-one], the Ki is greater than 5000 nM in assay [1], 740 nM at Mu (μ) opioid receptor and 640 nM in assay [2].
On the same counts, the results for `Cc1cccc2cccc(CN3CCC4(CC3)C(=O)N(C[C@H]3CN(C)C(=O)O3)CN4c3ccc(F)cc3)c12` [Compound 4, 1-(4-Fluoro-phenyl)-8-(8-methyl-naphthalen-1-ylmethyl)-3-(S)-(3-methyl-2-oxo-oxazolidin-5-ylmethyl)-1,3,8-triaza-spiro[4.5]decan-4-one] are greater than 5000 nM, 360 nM and 120 nM.
